The values that follow are results of earlier work, collected in patent publication US10736894B2, “Methods of treating developmental syndromes with PDE10A inhibitors” (Ovid Therapeutics Inc., priority 2018, dated 2020).

For data set [1] the following is noted: 100 mg dose.
Where [2] appears, read: single dose 3-1000 mg, volunteers.

Turning to `COc1cn(-c2ccc(-n3cccn3)cc2F)nc(-c2ccnn2-c2ccccc2)c1=O` [1-[2-fluoro-4-(1H-pyrazol-1-yl)phenyl]-5-methoxy-3-(1-phenyl-1H-pyrazol-5-yl)-pyridazin-4(1H)-one], the “deaths, serious adverse events, discontinuations due to adverse events” value (all dose cohorts 3-1000 mg) is reported as “no deaths, serious adverse events, or discontinuations due to adverse events”. In addition, under setting [2], the “drug-related adverse event: orthostatic hypotension” value is 9.1%, the “drug-related adverse event: orthostatic tachycardia” value is listed as 19.7% and the “drug-related adverse event: somnolence” value was 33.3%. Besides, in data set [1] (fed conditions versus fasting), the oral bioavailability result is listed as “increased oral bioavailability”. The Tmax (usually the time at which the peak concentration occurs) in data set [1] (fed conditions) is listed as 6 h.
